The results in this text go back to patent US9695155B2, “Herbicidal substituted pyrimidinyloxy benzene compounds” (E. I. DU PONT DE NEMOURS AND COMPANY, priority 2013, dated 2017).

The test system of assay [1] is Russian thistle. Put plainly: Test D preemergence. In kind it is in vivo, Salsola kali. Set-up: key: 0 = no effect, 100 = complete control. The source says:
Seeds of plant species selected from bluegrass (annual bluegrass, Poa annua), blackgrass (Alopecurus myosuroides), canarygrass (littleseed canarygrass, Phalaris minor), chickweed (common chickweed, Stellaria media), galium (catchweed bedstraw, Galium aparine), bromegrass, downy (downy bromegrass, Bromus tectorum), field poppy (Papaver rhoeas), field violet (Viola arvensis), green foxtail (Setaria viridis), deadnettle (henbit deadnettle, Lamium amplexicaule), Italian ryegrass (Lolium multiflorum), kochia (Kochia scoparia), lambsquarters (Chenopodium album), oilseed rape (Brassica napus), pigweed (Amaranthus retroflexus), chamomile (scentless chamomile, Matricaria inodora), Russian thistle (Salsola kali), speedwell (bird's-eye speedwell, Veronica persica), spring barley (Hordeum vulgare), spring wheat (Triticum aestivum), wild buckwheat (Polygonum convolvulus), wild mustard (Sinapis arvensis), wild oat (Avena fatua), wild radish (Raphanus raphanistrum), windgrass (Apera spica-venti), winter barley (Hordeum vulgare), and winter wheat (Triticum aestivum) were planted into a silt loam soil and treated preemergence with test chemicals formulated in a non-phytotoxic solvent mixture which included a surfactant.
At the same time, these species were planted in pots containing Redi-Earth® planting medium (Scotts Company, 14111 Scottslawn Road, Marysville, Ohio 43041) comprising spaghnum peat moss, vermiculite, wetting agent and starter nutrients and treated with postemergence applications of the test chemicals formulated in the same manner. Plants ranged in height from 2 to 18 cm (1- to 4-leaf stage). Treated plants and controls were maintained in a controlled growth environment for 7 to 21 days after which time all species were compared to controls and visually evaluated. Plant response ratings, summarized in Table D, are based on a scale of 0 to 100 where 0 is no effect and 100 is complete control. A dash (-) response means no test result.

The test system of assay [2] is wild oat. Put plainly: Test C preemergence. In kind it is in vivo, Avena fatua. The conditions noted are these: for Oat, Wild plant response rating: preemergence, scale 0 (no effect) to 100 (complete control); for Plant response rating, Oat, Wild: Preemergence, 31 g ai/ha, scale 0 to 100, 0 no effect, 100 complete control. The source says:
(§1) Seeds of plant species selected from blackgrass (Alopecurus myosuroides), Italian ryegrass (Lolium multiflorum), wheat, winter (winter wheat, Triticum aestivum), galium (catchweed bedstraw, Galium aparine), corn (Zea mays), large (Lg) crabgrass (Digitaria sanguinalis), giant foxtail (Setaria faberii), johnsongrass (Sorghum halepense), lambsquarters (Chenopodium album), morningglory (Ipomoea coccinea), yellow nutsedge (Cyperus esculentus), pigweed (Amaranthus retroflexus), ragweed (common ragweed, Ambrosia elatior), soybean (Glycine max), barnyardgrass (Echinochloa crus-galli), oilseed rape (Brassica napus), waterhemp (common waterhemp, Amaranthus rudis), kochia (Kochia scoparia), wild oat (Avena fatua), surinam grass (Brachiaria decumbens), foxtail, green (green foxtail, Setaria viridis), goosegrass (Eleusine indica), bromegrass, downy (downy bromegrass, Bromus tectorum), nightshade (eastern black nightshade, Solanum ptycanthum), cocklebur (common cocklebur, Xanthium strumarium), cupgrass, woolly (woolly cupgrass, Eriochloa villosa), bermudagrass (Cynodon dactylon), sunflower, (common oilseed sunflower, Helianthus annuus), Russian thistle (Salsola kali), and velvetleaf (Abutilon theophrasti) were planted into a blend of loam soil and sand and treated preemergence with test chemicals formulated in a non-phytotoxic solvent mixture which included a surfactant.
(§2) At the same time, plants selected from these crop and weed species and also barley, winter (winter barley, Hordeum vulgare), windgrass (Apera spica-venti), chickweed (common chickweed, Stellaria media), deadnettle (henbit deadnettle, Lamium amplexicaule), and canarygrass (littleseed canarygrass, Phalaris minor) were planted in pots containing Redi-Earth® planting medium (Scotts Company, 14111 Scottslawn Road, Marysville, Ohio 43041) comprising spaghnum peat moss, vermiculite, wetting agent and starter nutrients and treated with postemergence applications of test chemicals formulated in the same manner. Plants ranged in height from 2 to 18 cm (1- to 4-leaf stage) for postemergence treatments. Treated plants and controls were maintained in a greenhouse for 13 to 15 days, after which time all species were compared to controls and visually evaluated. Plant response ratings, summarized in Table C, are based on a scale of 0 to 100 where 0 is no effect and 100 is complete control. A dash (-) response means no test result.

Assay [3] relates to cocklebur. Put plainly: Test C postemergence. In kind it is in vivo, Xanthium strumarium. The note with it: for Plant response rating (0 to 100), Cocklebur: postemergence; for Plant response rating, Cocklebur: Postemergence, scale 0 to 100 (0 no effect, 100 complete control).
Source text: as §1, §2

The test system of assay [4] is kochia. Put plainly: Test C preemergence. In kind it is in vivo, Kochia scoparia. The note with it: for Kochia plant response rating: preemergence, scale 0 (no effect) to 100 (complete control); for Plant response rating, Kochia: Preemergence, 31 g ai/ha, scale 0 to 100, 0 no effect, 100 complete control.
Source text: as §1, §2

The test system of assay [5] is bromegrass, downy. Put plainly: Test C postemergence. In kind it is in vivo, Bromus tectorum. The conditions noted are these: for Plant response rating (0 to 100), Bromegrass, Downy: postemergence; for Plant response rating, Bromegrass, Downy: Postemergence, scale 0 to 100 (0 no effect, 100 complete control).
Source text: as §1, §2

For assay [6], the system named is palmer pigweed. Put plainly: Test E postemergence. In kind it is in vivo, Amaranthus palmeri. The note with it: for pest or weed control at 31 g/ha / pest or weed control at 62 g/ha / pest or weed control at 125 g/ha / pest or weed control at 250 g/ha / pest or weed control at 16 g/ha: post-emergence, read-out: Plant response rating, Pigweed, Palmer; for pest or weed control at 250 g/ha: 250 g ai/ha. The source says:
Seeds of plant species selected from corn (Zea mays), soybean (Glycine max), velvetleaf (Abutilon theophrasti), lambsquarters (Chenopodium album), wild poinsettia (Euphorbia heterophylla), palmer pigweed (Amaranthus palmeri), waterhemp (common waterhemp, Amaranthus rudis), surinam grass (Brachiaria decumbens), large (Lg) crabgrass (Digitaria sanguinalis), Brazilian crabgrass (Digitaria horizontalis), fall panicum (Panicum dichotomiflorum), giant foxtail (Setaria faberii), green foxtail (Setaria viridis), goosegrass (Eleusine indica), johnsongrass (Sorghum halepense), ragweed (common ragweed, Ambrosia elatior), barnyardgrass (Echinochloa crus-galli), sandbur (southern sandbur, Cenchrus echinatus), arrowleaf sida (Sida rhombifolia), Italian ryegrass (Lolium multiflorum), dayflower (Virginia (VA) dayflower, Commelina virginica), field bindweed (Convolvulus arvensis), morningglory (Ipomoea coccinea), nightshade (eastern black nightshade, Solanum ptycanthum), kochia (Kochia scoparia), yellow nutsedge (Cyperus esculentus), cocklebur (common cocklebur, Xanthium strumarium), smartweed (ladysthumb smartweed, and hairy beggarticks (Bidens pilosa), were planted into a silt loam soil and treated preemergence with test chemicals formulated in a non-phytotoxic solvent mixture which included a surfactant.
At the same time, plants from these crop and weed species and also horseweed (Canada horseweed, Conyza canadensis), waterhemp_RES1, (ALS & Triazine resistant common waterhemp, Amaranthus rudis), and waterhemp_RES2, (ALS & HPPD resistant common waterhemp, Amaranthus rudis) were planted in pots containing Redi-Earth® planting medium (Scotts Company, 14111 Scottslawn Road, Marysville, Ohio 43041) comprising spaghnum peat moss, vermiculite, wetting agent and starter nutrients were treated with postemergence applications of test chemicals formulated in the same manner. Plants ranged in height from 2 to 18 cm for postemergence treatments (1- to 4-leaf stage). Treated plants and controls were maintained in a greenhouse for 14 to 21 days, after which time all species were compared to controls and visually evaluated. Plant response ratings, summarized in Table E, are based on a scale of 0 to 100 where 0 is no effect and 100 is complete control. A dash (-) response means no test result.

The mark [7] stands for this setting: 31 g ai/ha, scale 0 (no effect) to 100 (complete control).
Where [8] appears, read: Postemergence, 31 g ai/ha, scale 0 to 100.
Where [9] appears, read: Postemergence, 62 g ai/ha, scale 0 to 100.
Where [10] appears, read: Postemergence, 125 g ai/ha, scale 0 to 100.
Where [11] appears, read: postemergence, 16 g ai/ha, scale 0 to 100, 0 no effect, 100 complete control.

In the case of `N#Cc1cccc(Oc2ncc(Cl)cn2)c1-n1cc(-n2ccc(C(F)(F)F)n2)cn1` [Compound 284], the “Plant response rating, Russian Thistle” value came out at 0 in assay [1] (setting [7]); 20 in assay [1] (125 g ai/ha, scale 0-100); 30 in assay [1] (250 g ai/ha, scale 0-100).
In the case of `Clc1cnc(Oc2ccccc2-n2cc(Cl)cn2)nc1` [Compound 3], the “Plant response rating, Russian Thistle” value in assay [1] (16 g ai/ha, scale 0 (no effect) to 100 (complete control)) is reported as 0; in assay [1] (setting [7]), 0; in assay [1] (62 g ai/ha, scale 0-100) it was 30; in assay [1] (125 g ai/ha, scale 0-100) it was 40; in assay [1] (250 g ai/ha, scale 0-100), 40.
As to `FC(F)(F)c1cnn(-c2ccccc2Oc2ncc(Cl)cn2)c1` [Compound 16], the “Oat, Wild plant response rating” value in assay [2] (62 g ai/ha), in assay [2] (125 g ai/ha) and in assay [2] (250 g ai/ha) was 90 throughout. Moreover, the “Plant response rating, Oat, Wild” value in assay [2] is 50. The “Plant response rating (0 to 100), Cocklebur” value in assay [3] (250 g ai/ha) is 80. In addition, the “Plant response rating, Cocklebur” value was 50 in assay [3] (31 g ai/ha, 13 to 15 days) and 55 in assay [3] (62 g ai/ha). The “Kochia plant response rating” value in assay [4] (62 g ai/ha) is 80; in assay [4] (125 g ai/ha), 85; in assay [4] (250 g ai/ha), 100. Also, the “Plant response rating, Kochia” value in assay [4] was found to be 50. For the same molecule, the “Plant response rating (0 to 100), Bromegrass, Downy” value in assay [5] (125 g ai/ha) and in assay [5] (250 g ai/ha) was 5 each time. In addition, the “Plant response rating, Bromegrass, Downy” value came to 0 in assay [5] (31 g ai/ha, 13 to 15 days) and 5 in assay [5] (62 g ai/ha).
For `N#Cc1cccc(Oc2ncc(Br)cn2)c1-n1cc(C(F)(F)F)cn1` [Compound 59, 3-[(5-bromo-2-pyrimidinyl)oxy]-2-[4-(trifluoromethyl)-1H-pyrazol-1-yl]benzonitrile], the pest or weed control at 31 g/ha in assay [6] (setting [8]) is 80%. The pest or weed control at 62 g/ha in assay [6] (setting [9]) was found to be 85%. The pest or weed control at 125 g/ha in assay [6] (setting [10]) amounted to 100%. The pest or weed control at 250 g/ha in assay [6] (Postemergence, scale 0 to 100) was found to be 100%. Besides, in assay [6] (setting [11]), the pest or weed control at 16 g/ha is 75%.
`Clc1cnc(Oc2cccc(Br)c2-n2cc(Br)cn2)nc1` [Compound 65]: the “Plant response rating, Pigweed, Palmer” value in assay [6] (setting [8]) turned out to be 50; in assay [6] (setting [9]), 50; in assay [6] (setting [10]) it was 60; in assay [6] (postemergence, 8 g ai/ha, scale 0 to 100, 0 no effect, 100 complete control), 10; in assay [6] (setting [11]), 20.
Consider `N#Cc1cccc(Oc2ncc(Cl)cn2)c1-n1cc(C(F)(F)F)cn1` [Compound 58, 3-[(5-chloro-2-pyrimidinyl)oxy]-2-[4-(trifluoromethyl)-1H-pyrazol-1-yl]benzonitrile], for which the pest or weed control at 31 g/ha in assay [6] (setting [8]) stood at 95%. In addition, in assay [6] (setting [9]), the pest or weed control at 62 g/ha came out at 100%. The pest or weed control at 125 g/ha in assay [6] (setting [10]) amounted to 100%. The pest or weed control at 250 g/ha in assay [6] (Postemergence, scale 0 to 100) was determined as 100%. In addition, the pest or weed control at 16 g/ha in assay [6] (setting [11]) was determined as 90%.
With `Fc1cnc(Oc2ccccc2-n2cc(Br)cn2)nc1` [Compound 10, 2-[2-(4-bromo-1H-pyrazol-1-yl)phenoxy]-5-fluoropyrimidine], the pest or weed control at 31 g/ha in assay [6] (setting [8]) was determined as 70%. In addition, the pest or weed control at 62 g/ha in assay [6] (setting [9]) was 75%. Besides, the pest or weed control at 125 g/ha in assay [6] (setting [10]) stood at 85%. For the same molecule, the pest or weed control at 250 g/ha in assay [6] (Postemergence, scale 0 to 100) is 95%. Also, in assay [6] (setting [11]), the pest or weed control at 16 g/ha was 60%. Further, the “Plant response rating (0 to 100), Cocklebur” value in assay [3] (125 g ai/ha) came to 55; in assay [3] (250 g ai/ha), 100. For the same molecule, the “Plant response rating, Cocklebur” value in assay [3] (31 g ai/ha, 13 to 15 days) was 45; in assay [3] (62 g ai/ha), 55. Besides, the “Plant response rating (0 to 100), Bromegrass, Downy” value in assay [5] (125 g ai/ha) came out at 10; in assay [5] (250 g ai/ha) it was 15. Further, the “Plant response rating, Bromegrass, Downy” value in assay [5] (31 g ai/ha, 13 to 15 days) stood at 5; in assay [5] (62 g ai/ha) it was 5.
Take `FC(F)(F)c1cnn(-c2ccccc2Oc2ncc(Br)cn2)c1` [Compound 18, 5-bromo-2-[2-[4-(trifluoromethyl)-1H-pyrazol-1-yl]phenoxy]pyrimidine]: the “Plant response rating, Russian Thistle” value in assay [1] (setting [7]) is given as 10; in assay [1] (62 g ai/ha, scale 0-100), 25; in assay [1] (125 g ai/ha, scale 0-100), 40; in assay [1] (250 g ai/ha, scale 0-100), 95. Also, the “Oat, Wild plant response rating” value in assay [2] (62 g ai/ha) was 50; in assay [2] (125 g ai/ha), 80; in assay [2] (250 g ai/ha) it was 85. Moreover, the “Plant response rating, Oat, Wild” value in assay [2] is listed as 0. Besides, the figures for the “Kochia plant response rating” value in assay [4] (62 g ai/ha), in assay [4] (125 g ai/ha) and in assay [4] (250 g ai/ha) were 60, 80 and 98, respectively. Also, the “Plant response rating, Kochia” value in assay [4] amounted to 15.
